Laboratory results as given in patent US20220274947A1, “NOVEL HETEROARYL-TRIAZOLE COMPOUNDS AS PESTICIDES” (Bayer Aktiengesellschaft, priority 2019, published 2022).

Key:
Assay type in all cases: in vivo
[1] = test system: Rhipicephalus microplus; experiment: Rhipicephalus (Boophilus) microplus in-vitro contact test, larval cattle tick, strain Parkhurst (BOOPMI Cont); conditions: application rate 5 μg/cm^2 (=500 g/ha), tick larvae, after 48 hours, read-out: activity (efficacy: 100% means all larvae are dead or moribund)
Protocol: Rhipicephalus (Boophilus) Microplus—In-Vitro Contact Tests Larval Cattle Tick (Strain Parkhurst, Resistant Against Synthetic Pyrethroids) (BOOPMI Cont)
9 mg compound is solved in 1 mL acetone and diluted with acetone to the desired concentration. 250 μL of the test solution is filled in 25 mL glass test tubes and homogeneously distributed on the inner walls by rotation and tilting on a shaking device (2 h at 30 rpm). With a compound concentration of 900 ppm, an inner surface of 44.7 cm^2 and a homogeneous distribution, a dose of 5 μg/cm^2 is achieved.
After the solvent has evaporated, each test tube is filled with 20-50 cattle tick larvae (Rhipicephalus microplus), closed with a perforated lid and incubated in a horizontal position at 85% relative humidity and 27° C. in an incubator. After 48 hours efficacy is determined. The larvae are patted on the ground of the tubes and negative geotactic behavior is recorded.
An efficacy of 100% means all larvae are dead or moribund; 0% means no larvae are dead or moribund.

[2] = test system: Spodoptera frugiperda; experiment: Spodoptera frugiperda spray test; conditions: in Zea mays, 168 h, read-out: activity (mortality)
Protocol: Spodoptera Fruaiperda—Spray Test
Solvent: 78.0 parts by weight acetone • 1.5 parts by weight dimethylformamide Emulsifier: alkylarylpolyglycol ether
To produce a suitable preparation of active compound, 1 part by weight of active compound is mixed with the stated amount of solvents and is diluted with water, containing an emulsifier concentration of 1000 ppm, to the desired concentration. Further test concentrations are prepared by dilution with emulsifier containing water.
Maize (Zea mays) leaf sections are sprayed with a preparation of the active ingredient of the desired concentration. Once dry, the leaf sections are infested with fall armyworm larvae (Spodoptera frugiperda).
After 7 days mortality in % is determined. 100% means all caterpillars have been killed and 0% means none of the caterpillars have been killed.

[3] = test system: Rhipicephalus microplus; experiment: Rhipicephalus (Boophilus) microplus injection test (BOOPMI Inj); conditions: 168 h, injection into adult engorged female ticks, egg deposition after 7 days, read-out: activity (efficacy: 100% means all eggs are infertile); for pest or weed control at 0.004 mg: application rate 4 μg/tick; for pest or weed control at 0.02 mg: application rate 20 μg/tick
Protocol: Rhipicephalus (Boophilus) Microplus—Injection Test (BOOPMI Inj)
Solvent: dimethyl sulfoxide
To produce a suitable preparation of active compound, 10 mg of active compound are dissolved in 0.5 mL solvent, and the concentrate is diluted with solvent to the desired concentration.
Five adult engorged female ticks (Rhipicephalus microplus) are injected with 1 μL compound solution into the abdomen. The ticks are transferred into replica plates and incubated in a climate chamber.
After 7 days egg deposition of fertile eggs is monitored. Eggs where fertility is not visible are stored in a climate chamber till hatching after about 42 days. An efficacy of 100% means all eggs are infertile; 0% means all eggs are fertile.

[4] = test system: Diabrotica balteata; experiment: Diabrotica balteata spray test; conditions: 168 h, wheat seeds, larvae, after 7 days, read-out: activity (efficacy: 100% means all seedlings have grown up like in the untreated, uninfected control); for pest or weed control at 32 µg/disc, 100 g/ha: application rate 100 g/ha (=32 μg/well); for pest or weed control at 160 µg/disc, 500 g/ha: application rate 500 g/ha (=160 μg/well)
Protocol: Diabrotica balteata—Spray Test Solvent: 78.0 parts by weight of acetone • • 1.5 parts by weight of dimethylformamide Emulsifier: alkylarylpolyglycol ether
To produce a suitable preparation of active compound, 1 part by weight of active compound is mixed with the stated amount of solvent, and the concentrate is diluted with water, containing an emulsifier concentration of 1000 ppm, to the desired concentration. Further test concentrations are prepared by dilution with emulsifier containing water.
Soaked wheat seeds (Triticum aestivum) are placed in a multiple well plate filled with agar and some water and are incubated for 1 day to germinate (5 seeds per well). The germinated wheat seeds are sprayed with a test solution containing the desired concentration of the active ingredient. Afterwards each unit is infected with 10-20 larvae of the banded cucumber beetle (Diabrotica balteata).
After 7 days efficacy in % is determined. 100% means all the seedlings have grown up like in the untreated, uninfected control; 0% means none of the seedlings have grown.

Structure (SMILES)	pest or weed control at 5 µg/cm2 [1] [%]	mortality at 100 g/ha [2] [%]	pest or weed control at 0.004 mg [3] [%]	pest or weed control at 0.02 mg [3] [%]	pest or weed control at 32 µg/disc, 100 g/ha [4] [%]	mortality at 500 g/ha [2] [%]	pest or weed control at 160 µg/disc, 500 g/ha [4] [%]
CC(NC(=O)c1cc(C(F)(F)F)cc(C(F)(F)F)c1)c1nc(Cl)nn1-c1ccc(C#N)cn1 (racemic) [I-39, 3,5-di(trifluoromethyl)-N-{1-[3-chloro-1-(3-cyano-pyridin-6-yl)-1H-1,2,4-triazol-5-yl]ethyl}-benzamide]	100	100	100	100	100		
CC(C)Oc1nc([C@H](C)NC(=O)c2cc(Cl)cc(C(F)(F)F)c2)n(-c2ccc(C#N)cn2)n1 [I-16]	100		100	100		100	100
CC(C)Oc1nc([C@H](C)NC(=O)c2cc(C(F)(F)F)cc(C(F)(F)F)c2)n(-c2ccc(C#N)cn2)n1 [I-17]	100	100	100	100	100	100	100
CC(C)Oc1nc([C@H](C)NC(=O)c2cc(Cl)cc(Cl)c2)n(-c2ccc(C#N)cn2)n1 [I-18]	90			100		83	100
CC(C)c1nc([C@H](C)NC(=O)c2cccc(C(F)(F)F)n2)n(-c2ccc(C#N)cn2)n1 [I-22]			80	100	100		
C[C@H](NC(=O)c1cc(Cl)cc(SC(F)(F)F)c1)c1nc(C2CC2)nn1-c1ccc(C#N)cn1 [I-45]	100	100	100		100		
CC(NC(=O)c1cc(Cl)cc(C(F)(F)F)c1)c1nc(Br)nn1-c1ccc(C#N)cn1 (stereo not shown) [I-49]	100	100			100		
CC(NC(=O)c1cc(Cl)nc(C(F)(F)F)c1)c1nc(Cl)nn1-c1ccc(C#N)cn1 (stereo not shown) [I-52]	100	100			100		
CC(NC(=O)c1cc(Br)cc(Br)c1)c1nc(Br)nn1-c1ccc(C#N)cn1 (stereo not shown) [I-53]	100	100			100		
CC(NC(=O)c1cc(Br)cc(Br)c1)c1nc(Cl)nn1-c1ccc(C#N)cn1 (stereo not shown) [I-54]	100	100					
CC(NC(=O)c1cc(Br)cc(OC(F)(F)F)c1)c1nc(Cl)nn1-c1ccc(C#N)cn1 (stereo not shown) [I-55]	80	100			100		
CC(NC(=O)c1cc(Br)cc(OC(F)(F)F)c1)c1nc(Br)nn1-c1ccc(C#N)cn1 (stereo not shown) [I-56]	100	100			100		
CC(NC(=O)c1cc(Cl)cc(C(F)(F)F)c1)c1nc(Cl)nn1-c1ccc(C#N)cn1 (stereo not shown) [I-57]	100	100			100		
CC(NC(=O)c1cc(Cl)cc(Cl)c1)c1nc(Cl)nn1-c1ccc(C#N)cn1 (stereo not shown) [I-58]	100	83					
CC(NC(=O)c1cncc(C(F)(F)F)c1)c1nc(Cl)nn1-c1ccc(C#N)cn1 (stereo not shown) [I-59]	100	100	80				
CC(NC(=O)c1cc(Cl)cc(OC(F)(F)F)c1)c1nc(Cl)nn1-c1ccc(C#N)cn1 (stereo not shown) [I-60]	100	83			100		
COc1nc([C@H](C)NC(=O)c2cc(F)cc(C#N)c2)n(-c2ccc(C#N)cn2)n1 [I-62]	90		100		100		
Cc1nc([C@H](C)NC(=O)c2cc(Br)cc(C(F)(F)F)n2)n(-c2ccc(C#N)cn2)n1 [II-55]	100		100	100			
Cc1nc([C@H](C)NC(=O)c2ccc(Cl)cn2)n(-c2ccc(C#N)cn2)n1 [II-56]	80		80	100			
C[C@H](NC(=O)c1cc(Br)cc(C(F)(F)F)n1)c1ncnn1-c1ccc(C#N)cn1 [II-58]				0			
C[C@H](NC(=O)c1cc(Cl)cc(C(F)(F)C(F)(F)F)c1)c1ncnn1-c1nccs1 [II-66]	100		100	100	100	100	100
C[C@H](NC(=O)c1cc(Cl)cc(C(F)(F)C(F)(F)F)c1)c1ncnn1-c1ncc(Br)s1 [II-67]	100		100	100		100	100
C[C@H](NC(=O)c1cc(Br)cc(Br)c1)c1ncnn1-c1ccc(C#N)cn1 [II- 13]							100
C[C@H](NC(=O)c1cc(Cl)cc(OC(F)(F)F)c1)c1ncnn1-c1cc(NC(=O)c2ccc(F)cc2)ccn1 [II- 20]						100	
